Reference: patent US8962692B2, “Cysteine and cystine prodrugs to treat schizophrenia and reduce drug cravings” (Marquette University, priority 2008, dated 2015)

Experiments:
[1] = tested on: PCP-induced deficits in sensorimotor gating; assay: Prepulse inhibition of startle response; reversal of PCP-induced deficits in sensorimotor gating; conditions: for inhibition of startle response (prepulse inhibition): difference relative to rats receiving PCP alone and/or N-acetylcysteine 30 mg/kg: compound pretreatment 60 min, prepulse 2-15 dB above background, Fisher LSD p<0.05
[2] = tested on: cocaine-induced reinstatement; assay: Extinction/reinstatement paradigm: cocaine-induced reinstatement of lever pressing; assay type: in vivo; conditions: rats, cocaine 10 mg/kg IP
[3] = human subjects; cited from earlier work
cocaine use and craving = conditions: cocaine abusers receiving NAC, clinical data; cited from earlier work
compulsive drug-seeking = conditions: rodents, preclinical studies; cited from earlier work
[4] = rats, phencyclidine 1.25 mg/kg SC

SMILES	inhibition of startle response (prepulse inhibition): difference relative to rats receiving PCP alone and/or N-acetylcysteine 30 mg/kg [1, 4]	melting point	also measured
CCOC1=N[C@@H](CS)C(OCC)=NC1 [Compound 5a, (3,6-Diethoxy-2,5-dihydro-,pyrazin-2-yl)-methanethiol]	significant difference		
CCOC1=N[C@@H](CSSC[C@H]2N=C(OCC)CN=C2OCC)C(OCC)=NC1 [Compound 5a-D, Bis[(3,6-Diethoxy-2,5-dihy-dro-pyrazin-2-yl)-methanethiol]]	significant difference		cocaine-induced reinstatement ([2]; 1 mg/kg (p.o.), comparable to 30 mg/kg NAC): sufficient to block cocaine-induced reinstatement
CC(C)(C)SC[C@H]1NC(=O)[C@H](CS)NC1=O [Compound 4e, (6R)-3-(tert-butylthiomethyl)-6-(mercaptomethyl)piperazine-2,5-dione]		> 280 °C (dec.)	
O=C1CNC(=O)[C@H](CSSC[C@H]2NC(=O)[C@H](Cc3ccccc3)NC2=O)N1 [Compound 11-a-b]	significant difference		
O=C1CNC(=O)[C@H](CS)N1 [Compound 4a, 2,5-piperazinedione, 3-(mercaptomethyl)-]	significant difference	258 °C	
CC(=O)N[C@@H](CS)C(=O)O [N-acetyl cysteine]			phencyclidine-induced deficits in sensorimotor gating ([1]; direct delivery into the brain (prefrontal cortex)): reverses phencyclidine-induced deficits in sensorimotor gating; sensorimotor gating (prepulse inhibition) after PCP ([1]; rats, N-acetyl cysteine 30 mg/kg po, pretreated 60 min, phencyclidine 1.25 mg/kg SC): failed to exhibit sensorimotor gating; cocaine-induced reinstatement ([2]; 30 mg/kg IP, responding 120 min): significant reduction; cocaine-induced reinstatement ([2]; 60 mg/kg IP, responding 120 min): significant reduction; cocaine-induced reinstatement ([2]; given orally): less effective; safety/tolerability profile [3]: favorable safety/tolerability profile; cocaine use and craving (cocaine use and craving): reduction in cocaine use and craving; compulsive drug-seeking (compulsive drug-seeking): effective in blocking compulsive drug-seeking
CC(C)[C@H]1NC(=O)[C@H](CS)NC1=O [Compound 4d, (6R)-3-isopropyl-6-(mercaptomethyl)piperazine-2,5-dione]		> 275 °C	
O=C1CNC(=O)[C@H](CSSC[C@@H]2NC(=O)CNC2=O)N1 [Compound 7a, Bis[2,5-Piperazinedione, 3-(mercaptomethyl)-]]	significant difference		
CC(C)C1NC(=O)[C@@H](CSSC[C@@H]2NC(=O)CNC2=O)NC1=O (stereo partly shown) [Compound 11-a-d]	significant difference		
O=C1CNC(=O)[C@@H](CSC(c2ccccc2)(c2ccccc2)c2ccccc2)N1 (stereo in doubt) [Compound 3c-a, 3-Tritylsulfanylmethyl-piperazine-2,5-dione]		225 to 227 °C	
CCOC1=N[C@@H](CSCC)C(=O)N[C@@H]1Cc1ccccc1 [Compound 6b-b, (3R,6R)-6-Benzyl-5-ethoxy-3-(ethylthiomethyl)-1,6-dihydropyrazin-2(3H)-one]		118 °C	
c1ccc(C2(N3CCCCC3)CCCCC2)cc1 [PCP, phencyclidine, reference compound]			effect of PCP on prepulse inhibition ([1]; rats, pcp 0-2.0 mg/kg, FIG. 4): disrupt prepulse inhibition
O=C1N[C@@H](CSSc2ccccc2)C(=O)N2CCC[C@H]12 [Compound 3b-c, (3R,8aR)-3-((phenyldisulfanyl)methyl)hexahydropyrrolo[1,2-a]pyrazine-1,4-dione]		120 °C	
